Measurements published in US8119614B2, “Substitution derivatives of N6-benzyladenosine, methods of their preparation, their use for preparation of drugs, cosmetic preparations and growth regulators, pharmaceutical preparations, cosmetic preparations and growth regulators containing these compounds” (Ustav Experimentalni Botaniky Akademie Ved Ceske Republiky, priority 2002, dated 2012).
Peptide text beside a SMILES is read from it. * marks the point of attachment. Cbz = O=C(OCc1ccccc1)*; CH2F = FC*

Tested on: HL-60 cells
Assay: HL-60 cell proliferation and viability (FDA/PI staining)
Format: cell-based, human
Conditions: 50 μM Z-VAD-FMK with 20 μM 2OH3MeOBAPR, 72 h (FIG. 10)
Experimental: Cell culture. A suspension of human promyelocytic HL-60 cells was cultured in RPMI-1640 medium supplemented with a 10% calf foetal serum and antibiotics in 5% CO2 atmosphere at 37° C. Cells were maintained at density from 1×10^5 to 6×10^5 cells per ml. HL-60 cells were obtained from ECACC.
Cell viability assay. Double staining with fluorescein diacetate (FDA) and propidium iodide (PI) for discrimination of dead and living cells was used. Cells were stained in growing medium with PI at a concentration 10 μg/ml 5 min later FDA was added at a concentration 1 μg/ml. The percentage of dead cells (i.e., red stained cells) was evaluated using fluorescence microscopy (Mlejnek and Kolman 1999).

COC(=O)C[C@H](NC(=O)[C@H](C)NC(=O)[C@@H](NC(=O)OCc1ccccc1)C(C)C)C(=O)CF [Z-VAD-FMK, reference compound] (Cbz-Val-Ala-Asp(OMe)-CH2F)
effect of caspase inhibitor on 2OH3MeOBAPR induced apoptosis and cell death: suppress morphological and biochemical characteristics of apoptosis, however it does not inhibit cell death itself
